The values that follow come from patent US20220354863A1, “METHODS FOR THE PROPHYLACTIC TREATMENT OF CANCER IN PATIENTS SUFFERING FROM PANCREATITIS” (INSERM (INSTITUT NATIONAL DE LA SANTÈ ET DE LA RECHERCH …, priority 2019, published 2022).

In assay [1] the test system is caerulein-treated KC mice. Briefly: Caerulein-induced pancreatic injury in oncogenic Kras (KC) mice. In kind it is in vivo. The conditions noted are these: KrasG12D background, 10 mg/kg by gavage. The text has this:
The LSL-Kras^G12D (from D Tuveson, Mouse Models of Human Cancers Consortium repository (NCI-Frederick, USA), Pdx1-cre (from DA Melton, Harvard University, Cambridge, Mass., USA), p110α^lox (from B. Vanhaesebroeck, UCL, London), strains were interbred on mixed background (CD1/C57B16) to obtain compound mutant Pdx1-Cre;LSL-Kras^G12D (named KC), pdx1-Cre;p110α^lox/lox (Pdx1-Cre;p110α^lox/lox were named α^inC; pdx1-Cre;LSL-Kras^G12D;p110α^lox/lox were named Kα^inC). Littermates not expressing Cre as well as Pdx1-Cre and p110α^lox/lox mice of the same age were used as control. All procedures and animal housing are conformed to the regulatory standards and were approved by the Ethical committee according to European legislation translated to French Law as Décret 2013-118 1 Feb. 2013 (APAFIS 3601-2015121622062840). Genotyping was performed as described: the genetically modified allele is called p110α^lox or p110α^ΔDFG (here named Rec) after Cre recombination. DFG is a conserved motif in the activation loop of the p110α kinase domain critical for its catalytic activity. The gene targeting strategy used is different from a traditional conditional knock-out strategy. […] Primers corresponds to post-cre primers used to verify the presence of recombined allele ΔDFG: ma9: -[…]; ma5: […]; annealing temperature: 65° C.; recombined ΔDFG-544 bp, wild type (+) or unrecombined lox- >10 kbp amplicon. Genotyping of tail or pancreas samples was performed after DNA extraction with Sigma kit (XNAT-100RXN).
Animals were euthanized 1, 3, 7 or 17 days later, and recombination verified before analysis as described in [44, 45].
Immunostainings were conducted using standard methods on formalin-fixed, paraffin-embedded tissues, including both mice and human pancreas.

Assay [2] addresses p110β (Homo sapiens, UniProt P42338). The conditions noted are these: read-out: in vitro IC50 β; cited from earlier work.
The target in assay [3] is p110δ (Homo sapiens, UniProt O00329). The conditions noted are these: read-out: in vitro IC50 δ; cited from earlier work.
Assay [4] addresses p110γ (Homo sapiens, UniProt P48736). The conditions noted are these: read-out: in vitro IC50 γ; cited from earlier work.
Assay [5] has as its target mTOR (Homo sapiens, UniProt P42345). The conditions noted are these: cited from earlier work.
Assay [6] concerns the target C2β (Homo sapiens, UniProt O00750). Conditions: read-out: in vitro IC50 C2β; cited from earlier work.
Assay [7] has as its target C2α (Homo sapiens, UniProt O00443). Conditions: read-out: in vitro IC50 C2α; cited from earlier work.
Assay [8] deals with vps34 (Homo sapiens, UniProt Q8NEB9). The conditions noted are these: read-out: in vitro IC50 vps34; cited from earlier work.

The structures appear in SMILES notation.

Sequence of C2β (O00750 whole entry): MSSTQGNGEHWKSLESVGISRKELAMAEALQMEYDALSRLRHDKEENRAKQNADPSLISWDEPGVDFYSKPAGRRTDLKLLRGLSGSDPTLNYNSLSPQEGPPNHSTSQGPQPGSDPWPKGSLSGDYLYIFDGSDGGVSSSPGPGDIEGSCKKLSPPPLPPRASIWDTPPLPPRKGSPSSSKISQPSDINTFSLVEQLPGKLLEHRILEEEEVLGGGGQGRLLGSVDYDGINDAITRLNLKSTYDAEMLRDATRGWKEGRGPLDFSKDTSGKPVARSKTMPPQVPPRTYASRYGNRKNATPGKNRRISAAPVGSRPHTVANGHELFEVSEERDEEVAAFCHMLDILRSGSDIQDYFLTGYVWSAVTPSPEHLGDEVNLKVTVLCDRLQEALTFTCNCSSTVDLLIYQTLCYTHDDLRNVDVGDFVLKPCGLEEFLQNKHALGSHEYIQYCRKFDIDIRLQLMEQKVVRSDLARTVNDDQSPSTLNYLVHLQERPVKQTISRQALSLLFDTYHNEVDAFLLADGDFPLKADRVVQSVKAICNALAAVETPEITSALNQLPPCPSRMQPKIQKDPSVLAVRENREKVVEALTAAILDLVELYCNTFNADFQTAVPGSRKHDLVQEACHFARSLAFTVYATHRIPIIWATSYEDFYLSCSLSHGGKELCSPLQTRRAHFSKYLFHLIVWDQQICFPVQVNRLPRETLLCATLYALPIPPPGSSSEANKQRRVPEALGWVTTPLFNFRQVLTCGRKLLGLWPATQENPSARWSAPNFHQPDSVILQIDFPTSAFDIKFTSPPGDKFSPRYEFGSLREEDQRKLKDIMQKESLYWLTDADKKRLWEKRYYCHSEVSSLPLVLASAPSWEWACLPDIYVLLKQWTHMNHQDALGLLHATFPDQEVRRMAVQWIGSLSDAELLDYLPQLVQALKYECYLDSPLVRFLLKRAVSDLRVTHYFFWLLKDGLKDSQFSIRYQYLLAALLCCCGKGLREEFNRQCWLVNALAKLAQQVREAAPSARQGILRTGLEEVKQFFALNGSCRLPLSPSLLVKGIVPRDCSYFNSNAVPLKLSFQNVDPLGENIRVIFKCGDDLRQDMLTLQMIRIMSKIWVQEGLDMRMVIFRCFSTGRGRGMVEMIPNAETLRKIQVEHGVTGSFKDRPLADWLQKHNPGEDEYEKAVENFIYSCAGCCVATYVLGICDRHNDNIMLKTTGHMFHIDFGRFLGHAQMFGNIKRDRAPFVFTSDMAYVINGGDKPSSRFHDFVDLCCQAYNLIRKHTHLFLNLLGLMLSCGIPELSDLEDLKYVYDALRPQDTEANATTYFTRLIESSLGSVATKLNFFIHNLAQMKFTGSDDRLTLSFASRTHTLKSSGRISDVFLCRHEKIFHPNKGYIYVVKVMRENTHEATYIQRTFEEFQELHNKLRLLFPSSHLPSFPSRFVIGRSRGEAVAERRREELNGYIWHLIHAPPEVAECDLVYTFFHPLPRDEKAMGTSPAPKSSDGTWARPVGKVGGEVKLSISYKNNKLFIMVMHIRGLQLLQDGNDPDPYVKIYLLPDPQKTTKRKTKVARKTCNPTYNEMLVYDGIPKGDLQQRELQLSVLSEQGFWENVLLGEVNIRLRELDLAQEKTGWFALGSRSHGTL
Sequence of p110γ (P48736 whole entry): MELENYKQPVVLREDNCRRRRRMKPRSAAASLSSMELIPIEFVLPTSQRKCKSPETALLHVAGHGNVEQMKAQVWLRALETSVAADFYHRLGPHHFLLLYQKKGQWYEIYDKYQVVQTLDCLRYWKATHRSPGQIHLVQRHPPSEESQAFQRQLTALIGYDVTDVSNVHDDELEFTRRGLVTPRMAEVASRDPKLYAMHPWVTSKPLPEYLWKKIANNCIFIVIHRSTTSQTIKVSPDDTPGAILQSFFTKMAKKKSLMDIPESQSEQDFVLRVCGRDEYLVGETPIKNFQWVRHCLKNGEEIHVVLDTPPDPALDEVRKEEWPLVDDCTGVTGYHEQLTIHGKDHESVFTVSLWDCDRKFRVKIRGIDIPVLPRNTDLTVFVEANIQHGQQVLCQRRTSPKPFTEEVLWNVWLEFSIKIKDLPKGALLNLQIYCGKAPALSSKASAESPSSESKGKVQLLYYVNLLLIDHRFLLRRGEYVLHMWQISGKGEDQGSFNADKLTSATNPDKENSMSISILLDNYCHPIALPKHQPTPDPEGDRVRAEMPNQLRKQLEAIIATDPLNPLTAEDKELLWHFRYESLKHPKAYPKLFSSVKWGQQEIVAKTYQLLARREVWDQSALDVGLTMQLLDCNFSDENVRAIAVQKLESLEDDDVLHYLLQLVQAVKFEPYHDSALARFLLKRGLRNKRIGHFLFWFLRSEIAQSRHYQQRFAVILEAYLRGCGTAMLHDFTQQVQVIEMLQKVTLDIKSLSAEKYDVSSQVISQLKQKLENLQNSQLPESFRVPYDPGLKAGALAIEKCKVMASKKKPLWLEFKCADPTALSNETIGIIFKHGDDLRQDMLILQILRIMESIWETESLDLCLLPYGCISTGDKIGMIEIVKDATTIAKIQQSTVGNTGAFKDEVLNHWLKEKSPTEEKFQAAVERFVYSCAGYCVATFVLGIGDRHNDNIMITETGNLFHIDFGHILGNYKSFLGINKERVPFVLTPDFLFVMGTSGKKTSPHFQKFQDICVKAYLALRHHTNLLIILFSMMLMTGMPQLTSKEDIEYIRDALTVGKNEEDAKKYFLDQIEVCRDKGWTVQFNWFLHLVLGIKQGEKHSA
Sequence of p110β (P42338 whole entry): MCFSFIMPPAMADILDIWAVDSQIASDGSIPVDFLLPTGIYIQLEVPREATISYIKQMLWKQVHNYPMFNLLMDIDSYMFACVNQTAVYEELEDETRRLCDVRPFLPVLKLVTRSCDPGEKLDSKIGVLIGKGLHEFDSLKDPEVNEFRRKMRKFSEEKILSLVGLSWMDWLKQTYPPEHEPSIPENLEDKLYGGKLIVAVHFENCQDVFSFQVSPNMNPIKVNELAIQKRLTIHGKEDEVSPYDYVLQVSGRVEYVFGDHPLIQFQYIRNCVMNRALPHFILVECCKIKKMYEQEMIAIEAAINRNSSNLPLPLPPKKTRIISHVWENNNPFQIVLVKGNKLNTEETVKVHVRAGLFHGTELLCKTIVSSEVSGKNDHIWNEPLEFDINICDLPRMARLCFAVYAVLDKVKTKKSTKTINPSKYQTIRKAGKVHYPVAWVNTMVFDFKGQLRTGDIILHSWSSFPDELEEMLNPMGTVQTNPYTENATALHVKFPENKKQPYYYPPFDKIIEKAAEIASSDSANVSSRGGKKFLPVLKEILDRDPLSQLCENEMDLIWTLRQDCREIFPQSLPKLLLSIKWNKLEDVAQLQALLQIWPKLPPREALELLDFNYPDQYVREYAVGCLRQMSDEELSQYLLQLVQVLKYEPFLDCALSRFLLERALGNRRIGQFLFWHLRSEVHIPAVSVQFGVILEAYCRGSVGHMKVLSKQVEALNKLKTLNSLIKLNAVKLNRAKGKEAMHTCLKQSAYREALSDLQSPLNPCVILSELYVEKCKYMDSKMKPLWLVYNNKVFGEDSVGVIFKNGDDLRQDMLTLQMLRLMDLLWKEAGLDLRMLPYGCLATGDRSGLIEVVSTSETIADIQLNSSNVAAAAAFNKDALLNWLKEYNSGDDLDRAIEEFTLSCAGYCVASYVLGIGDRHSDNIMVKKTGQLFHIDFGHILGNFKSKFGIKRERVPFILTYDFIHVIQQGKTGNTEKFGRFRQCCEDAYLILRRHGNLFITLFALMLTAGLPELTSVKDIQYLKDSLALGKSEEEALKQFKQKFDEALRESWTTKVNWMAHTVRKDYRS
Sequence of p110β (P27986 whole entry partner): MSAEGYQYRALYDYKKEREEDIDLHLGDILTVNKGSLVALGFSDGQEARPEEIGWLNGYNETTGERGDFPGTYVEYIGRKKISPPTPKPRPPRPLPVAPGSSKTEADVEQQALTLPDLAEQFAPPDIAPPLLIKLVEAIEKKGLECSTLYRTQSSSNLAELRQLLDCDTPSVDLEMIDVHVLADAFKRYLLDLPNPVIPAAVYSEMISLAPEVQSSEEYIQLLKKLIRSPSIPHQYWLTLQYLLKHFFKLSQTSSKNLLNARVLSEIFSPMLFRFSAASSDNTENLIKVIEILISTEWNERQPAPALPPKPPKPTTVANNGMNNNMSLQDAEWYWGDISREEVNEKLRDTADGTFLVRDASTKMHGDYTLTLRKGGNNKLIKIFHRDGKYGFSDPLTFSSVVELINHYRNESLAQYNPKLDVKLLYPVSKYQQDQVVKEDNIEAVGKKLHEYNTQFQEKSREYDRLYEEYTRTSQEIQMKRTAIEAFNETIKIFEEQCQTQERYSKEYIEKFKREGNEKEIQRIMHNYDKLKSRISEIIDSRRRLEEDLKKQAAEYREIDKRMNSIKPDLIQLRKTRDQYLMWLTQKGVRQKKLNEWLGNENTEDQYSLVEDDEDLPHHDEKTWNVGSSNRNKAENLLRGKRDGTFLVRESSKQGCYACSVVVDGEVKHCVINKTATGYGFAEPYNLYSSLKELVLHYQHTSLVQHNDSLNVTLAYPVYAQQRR

For `CC(C)n1ncnc1-c1cn2c(n1)-c1ccc(O[C@@H](C)C(N)=O)cc1OCC2` [GDC0326, (S)-2-((2-(1-Isopropyl-1H-1,2,4-triazol-5-yl)-5,6-dihydrobenzo[f]imidazo [1,2-d][1,4]oxazepin-9-yl)oxy)propanamide], the “activation of the stromal compartment (CD18 immune cell staining, picrosirius red collagen deposit staining)” value in assay [1] was “reversed the activation of the stromal compartment”. The lesion area result in assay [1] (day 17, compared to caerulein-treated KC mice that received vehicle) is given as “significant decrease of lesion area”. In assay [1] (day 17, vs vehicle), the p-Akt substrate staining result is “absence of p-Akt Subsrate staining”. For the same compound, the IC50 – broadly, the point on the concentration scale where inhibition reaches its midpoint – is 133 nM in assay [2]; 20 nM in assay [3]; 51 nM in assay [4]; 261 nM in assay [6]; over 10000 nM in assay [7]; 2840 nM in assay [8]. Besides, the Ki – broadly, the dissociation constant of the complex between target and ligand, obtained from inhibition or displacement – in assay [5] was 4300 nM.
